Reference: US20230097801A1, “METHODS OF INCREASING CELL PHAGOCYTOSIS” (National Health Research Institutes, priority 2021, published 2023)
“Also recorded” adds a separate entry of the source. Where two headings read alike, the source gives them in different places.

Legend:
[1] = tested on: CD47; experiment: Pharmacodynamic study, CC2C6 binding and total CD47 on Raji xenograft tumor cells; assay type: in vivo, human; details: 100 mg/kg p.o. QD*5, 10 days
Experimental: A pharmacodynamic study was also conducted to evaluate target engagement of Compound 34. In this study, one million Raji cells in culture medium and matrigel (1:1, v/v) were injected subcutaneously into the left flank region of each mouse. Treatments were initiated after randomization with inclusion of tumors at approximately 150 mm^3. A dosing vehicle for Compound 34 was prepared using 10% DMA: 40% PEG400: 50% (1% CMC) (v/v/v) and was dosed orally (p.o.) at 100 mg/kg once a day and 5 days a week (Q.D.*5). The mice were treated with either the vehicle control or Compound 34 for 10 days. They were then sacrificed 24 hours after the last dose (n=4 per group). Tumors were harvested and isolated into single cell suspensions for flow cytometry analysis. Unexpectedly, Compound 34 reduced 56% of anti-CD47 CC2C6 antibody binding on the tumor cell surface, as indicated by a decreasing level of anti-CC2C6^+ tumor cells in the Compound 34-treated mice as compared to the vehicle-treated mice.

[2] = tested on: CD47; experiment: Flow cytometry, anti-human CD47 CC2C6 antibody binding on DLD-1 cell surface; assay type: cell-based
Experimental: Binding between CD47 and SIRPα was studied by measuring the level of CD47 binding using any suitable method. Flow cytometric analysis is useful to quantify the level of binding of CD47 to antibody CC2C6, which is then subjected to an immune-staining procedure using fluorochrome-conjugated secondary antibody followed by analysis of the immune-staining signal with a flow cytometry instrument to obtain the level of the CD47-CC2C6 binding. In another method, analysis of CD47 is performed using SIRPα-Fc formed from SIRPα fused with human IgG1, which is then subjected to an immune-staining procedure using fluorochrome-conjugated secondary antibody against human IgG1, followed by analysis of the immune-staining signal. SIRPα is expressed on the surface of a myeloid cell such as macrophage, monocyte, neutrophil, or dendritic cell. Alternatively, SIRPα is fused with human IgG1 to form a SIRPα-Fc recombinant protein. […] An anti-cancer agent (e.g., rituximab) can be used together with a compound of formula (I). Useful anti-cancer agents are described above including anti-PD-L1 antibodies, anti-CD20 antibodies, anti-HER2 antibodies, anti-EGFR antibodies, and anti-CD47 antibodies. Other suitable anti-cancer agents are chemotherapeutic agents such as doxorubicin, epirubicin, idarubicin, methotrexate, mitoxantrone, oxaliplatin, and cyclophosphamide.
Human colon cancer DLD-1 cells were obtained from NHRI IBPR HTS Lab, Taiwan. DLD-1 cells were maintained under the same conditions described immediately above.
(§1) Antibody conjugates and extracellular domain of SIRPα used to analyze cell surface CD47 binding include anti-human CD47 CC2C6, 2D3, recombinant human SIRPα/CD172a Fc chimer protein, and anti-human IgG Fc. To determine inhibition of CD47 binding, cancer cells were treated with compounds of formula (I) at various concentrations for 4 days. Thereafter, the cells were washed with PBS containing 0.5% BSA (FACS buffer) followed by incubation with fluorochrome-labeled antibodies to human CD47 (i.e., CC2C6 and 2D3) at 1:50 dilution in FACS buffer for 30 minutes at 4° C. Compounds of formula (I) produced a dose-dependent inhibition of anti-CD47 CC2C6 antibody that recognized CD47 and SIRPα binding site on the tumor cell surface including B-cell lymphoma Raji cells, colon cancer cells DLD-1, and ovarian cancer SK-OV-3 cells (see FIGS. 1A, 1B, and 1C, respectively).

[3] = tested on: CD47; experiment: Flow cytometry, anti-human CD47 2D3 control antibody binding on Raji cell surface; assay type: cell-based; details: Raji cells
Experimental: as §1

[4] = Plasma and tumor concentrations in Raji xenograft mice; assay type: in vivo; details: for concentration at 2 h: 2 hours after the last dose
Experimental: A pharmacokinetic study was conducted to evaluate plasma and tumor concentrations of Compound 34 using human B-cell lymphoma Raji xenograft tumors. One million Raji cells in culture medium and matrigel (1:1, v/v) were injected subcutaneously into the left flank region of each mouse. Treatments were initiated after randomization with inclusion of tumors at approximately 90 mm^3. A dosing vehicle for Compound 34 was prepared using 10% DMA: 40% PEG400: 50% (1% CMC) (v/v/v) and was dosed orally (p.o.) at 100 mg/kg once a day and 5 days a week (Q.D.*5). The mice were treated with either the vehicle control or Compound 34 for 3 weeks. They were sacrificed 2, 4, 8, or 24 hours after the last dose (n=4 per time point). Tumor and plasma were collected to determine concentrations of Compound 34.

What does the source list for `O=C1NC[C@H](c2ccc(-c3csc(C(F)(F)F)c3)c(F)c2F)N1c1ccc2[nH]cnc2c1` [Compound 34]?
total CD47 expression level on the tumor cell surface [1]: did not affect a total CD47 expression level; also recorded: without affecting a total CD47 expression level; IC50 ([2]; Colon Cancer (DLD-1 cells), 4 days treatment, read-out: IC50, inhibition of CC2C6 binding): 580 nM; inhibition of binding of anti-human CD47 antibody CC2C6 (in words) ([2]; DLD-1 cells): effectively inhibited; inhibition of binding of anti-human CD47 antibody 2D3 (in words) [3]: not by anti-CD47 control antibody 2D3; also recorded: did not inhibit; tumor concentration ([4]; 100 mg/kg p.o. QD*5 for 3 weeks, next 22 hours (2 to 24 hours after the last dose)): ≥ 27,507 ng/g tissue weight; concentration at 2 h ([4]; mouse, plasma, oral, 100 mg/kg p.o. QD*5 for 3 weeks, read-out: plasma concentration): 18600 ng/mL; concentration at 24 h ([4]; mouse, plasma, oral, 100 mg/kg p.o. QD*5 for 3 weeks, 24 hours after the last dose): 5360 ng/mL; concentration at 2 h ([4]; mouse, tumor, oral, 100 mg/kg p.o. QD*5 for 3 weeks, read-out: tumor concentration): 29700 ng/g; tumor concentrations versus plasma (in words) ([4]; within 24 hours post treatment): much higher than those in plasma
